In brackets after ≈: the same amount, converted by molar mass.
Columns and labels:
H. pylori NCTC 11637 = test: MIC determination using broth microdilution method, Helicobacter pylori; type: cell-based; conditions: Helicobacter pylori, NCTC11637; H. pylori NCTC 11637(R), metronidazole-resistant strain; read-out: MIC
Experimental: (§1) • 1) A frozen solution stored at −80° C. was taken out, and thawed at room temperature; 100 μL of bacterial solution was taken with a pipette, coated onto a Columbia blood agar plate (finished-product medium), put invertedly in a […] culture box, placed in a micro-aerobic gas production bag to achieve a micro-aerobic environment, and cultured at 37° C. for 2-3 days. • 2) A sterile inoculation ring was used to pick Helicobacter pylori single colonies (transparent water droplets) grown on the Colombian blood agar medium and inoculated in the above liquid medium; and cultured at 37° C. in a micro-aerobic environment for 3 days. • 3) A required concentration (absorbance) for the experiment was reached after culture, and the bacterial solution was taken for subsequent experiments.
(§2) The drug concentration at which bacteria ceased to grow or grew at the most significant reduction level was referred to as the MIC value.

H. pylori ATCC 43504 [1] = test: as above; type: cell-based; conditions: Helicobacter pylori, ATCC43504; H. pylori ATCC 43504(R), metronidazole-resistant strain; read-out: MIC
Experimental: as §1, §2

H. pylori ATCC 26695 [2] = test: as above; type: cell-based; conditions: ATCC26695, H. pylori ATCC 26695(S), metronidazole-susceptible strain, read-out: MIC
Experimental: as §1, §2

[3] = test system: H. pylori Sydney strain SS1; test: as above; type: cell-based; conditions: H. pylori Sydney strain SS1, read-out: MIC
Experimental: as §1, §2

H. pylori ATCC 26695 [4] = conditions: H. pylori ATCC 26695(S); footnote b; cited from earlier work
[5] = test system: Clostridioides difficile ATCC 43255; test: MIC determination using broth microdilution method, anaerobic bacteria; type: cell-based; conditions: ATCC43255; Clostridioides difficile ATCC 43255; broth microdilution, anaerobic, 37° C., 48 h
Experimental: 0.10 g of sterile cycloserine and 3.20 mg of sterile cefoxitin (filtered by a filter membrane and sterilized) were added to every 200 mL, mixed well, and poured into a sterile petri dish for later use.
S3, culture of Clostridioides difficile strain: 1) the strain stored at −80° C. was resuscitated in an anaerobic glove box with a cycloserine-cefoxitin-fructose agar medium plate, and statically cultured at 37° C. in a constant-temperature incubator for 48 h; • 2) single colonies were picked, and statically cultured in the brain heart infusion broth medium overnight at 37° C. in the constant-temperature incubator; and • 3) the bacterial solution that was statically cultured overnight was transferred into the anaerobic glove box with the brain heart infusion broth medium at a ratio of 1:100, and cultured for 3-4 h until the OD600 was between 0.6 and 0.8; and during this process, 5 g/L of yeast extract solution was added to increase a strain concentration.
(§3) The culture process of the strain was operated in the anaerobic glove box. After the operation was completed, the strain was well sealed with an anaerobic bag or an anaerobic box, taken out and then cultured in the constant-temperature incubator.

[6] = test system: Clostridioides difficile infection (spores, 027 Type); test: Clostridioides difficile infection (CDI) mouse model; type: in vivo, C57BL/6 mice; conditions: for number of surviving mice: 10 animals per group
Description: • 1) Experimental animals: C57BL/6, 4-6 weeks old, female.
In order to evaluate the efficacy of the compounds of the present application on Clostridioides difficile infection, an animal model of Clostridioides difficile infection was established, as shown in FIG. 1. […] On Day 0, the mice were administrated with 10^5 CFU/mL of spores by gavage; and on Days 1 and 2, the mice were administrated with 10^6 CFU/mL of spores by gavage. Starting from Day 3, the mice were given 7 days of drug treatment, and all mice were euthanized at the end of the experiment, except for the death of mice during the treatment.
Two of the conjugates, SCUT1-2 and SCUT1-6, with the optional in-vitro inhibitory activities were selected. […] The therapeutic effect of the conjugate of the present application in the treatment of Clostridioides difficile infection was evaluated.

H. pylori ATCC 43504 [7] = conditions: H. pylori ATCC 43504(R); footnote a; cited from earlier work
[8] = test system: Bacteroides fragilis ATCC 25285; test: MIC determination using broth microdilution method, anaerobic bacteria; type: cell-based; conditions: ATCC25285; Bacteroides fragilis ATCC 25285; broth microdilution, anaerobic, 37° C., 48 h; read-out: MIC
Experimental: as §3

[9] = test system: Porphyromonas gingivalis ATCC 33277; test: as above; type: cell-based; conditions: ATCC33277; Porphyromonas gingivalis ATCC 33277; broth microdilution, anaerobic, 37° C., 48 h; read-out: MIC
Experimental: S5, Culture of Porphyromonas gingivalis strain: • the strain stored at −80° C. was resuscitated in the anaerobic glove box with a Colombian blood agar plate, and statically cultured at 37° C. in the constant-temperature incubator for 5-7 days.
as §3

[10] = Day 3 (before the administration), 50 mg/kg groups

## Cc1ncc([N+](=O)[O-])n1CCO [Metronidazole]
H. pylori NCTC 11637
  MIC: > 128 µg/mL
H. pylori ATCC 43504 [1]
  MIC: > 128 µg/mL
H. pylori ATCC 26695 [2]
  MIC: 4 µg/mL (≈ 23.4 µM)
[3]
  MIC: 8 µg/mL (≈ 46.7 µM)
H. pylori ATCC 26695 [4]
  MIC reported in related literatures: (1-8)^b μg/mL
[5]
  MIC: 1 to 2 µg/mL (≈ 5.84 to 11.7 µM)
[6]; [10]
  number of mice with diarrhea: 9 number of mice
  number of surviving mice: 10 number of mice
[6]; Day 4, 50 mg/kg
  number of mice with diarrhea: 8 number of mice
  number of surviving mice: 9 number of mice
[6]; Day 5, 50 mg/kg
  number of mice with diarrhea: 5 number of mice
  number of surviving mice: 8 number of mice
[6]; Day 6, 50 mg/kg
  number of mice with diarrhea: 3 number of mice
  number of surviving mice: 8 number of mice
[6]; Day 7, 50 mg/kg
  number of mice with diarrhea: 3 number of mice
  number of surviving mice: 8 number of mice
[6]; Day 8, 50 mg/kg
  number of mice with diarrhea: 3 number of mice
  number of surviving mice: 8 number of mice
[6]; Day 9, 50 mg/kg
  number of mice with diarrhea: 3 number of mice
  number of surviving mice: 8 number of mice
[6]; after 7 days of drug treatment, 50 mg/kg, Model group 44.44%
  probability of survival: 80%
H. pylori ATCC 43504 [7]
  MIC reported in related literatures: (64-256)^a μg/mL
[8]
  MIC: 0.25 to 2 µg/mL (≈ 1.46 to 11.7 µM)
[9]
  MIC: 2 µg/mL (≈ 11.7 µM)

From patent US20260199482A1, “BILE ACID-METRONIDAZOLE CONJUGATE AND USE THEREOF” (SOUTH CHINA UNIVERSITY OF TECHNOLOGY, priority 2022, published 2026)
